Source: patent US20050238642A1, “Modified bouganin proteins, cytotoxins and methods and uses thereof” (priority 2004, published 2005)

B1: VB6-845: cytotoxin: Fab version of an anti-Ep-CAM scFv antibody linked to Bou156 at the C-terminus of the CH domain via a furin linker (protein)
chain 1: EVQLVQSGPGLVQPGGSVRISCAASGYTFTNYGMNWVKQAPGKGLEWMGWINTYTGESTYADSFKGRFTFSLDTSASAAYLQINSLRAEDTAVYYCARFAIKGDYWGQGTLLTVSSASTKGPSVFPLAPSSKSTSGGTAALGCLVKDYFPEPVTVSWNSGALTSGVHTFPAVLQSSGLYSLSSVVTVPSSSLGTQTYICNVNHKPSNTKVDKKVEPKSCTRHRQPRGWEQLYNTVSFNLGEAYEYPTFIQDLRNELAKGTPVCQLPVTLQTIADDKRFVLVDITTTSKKTVKVAIDVTDVYVVGYQDKWDGKDRAVFLDKVPTVATSKLFPGVTNRVTLTFDGSYQKLVNAAKADRKALELGVNKLEFSIEAIHGKTINGQEAAKFFLIVIQMVSEAARFKYIETEVVDRGLYGSFKPNFKVLNLENNWGDISDAIHKSSPQCTTINPALQLISPSNDPWVVNKVSQISPDMGILKFKSSK
chain 2: HHHHHHDIQMTQSPSSLSASVGDRVTITCRSTKSLLHSNGITYLYWYQQKPGKAPKLLIYQMSNLASGVPSRFSSSGSGTDFTLTISSLQPEDFATYYCAQNLEIPRTFGQGTKVELKRTVAAPSVFIFPPSDEQLKSGTASVVCLLNNFYPREAKVQWKVDNALQSGNSQESVTEQDSKDSTYSLSSTLTLSKADYEKHKVYACEVTHQGLSSPVTKSFNRGEC

Tests used:
A-375 = assay: MTS cytotoxicity assay; format: cell-based; settings: Ep-CAM-negative A-375, MTS, 5 days
Description: (§1) The MTS assay was preformed using standard techniques known in the art. More particularly, 50 microlitres of cells (2×10^4 cells/ml) were seeded per well and plates were incubated at 37° C. under 5% CO2 for 2 hr. Then 50 microlitres of spiked drug (i.e. construct to be tested or control) was added to the culture medium at increasing concentrations. Culture medium, with or without cells, was used as positive and negative controls, respectively. The plates were left at 37° C. under 5% CO2 for 5 days. At day 5, the inhibition of cell proliferation was evaluated by adding 20 microlitres of MTS reagent (Promega, Cat# G5430). The plates were further incubated at 37° C. under 5% CO2 for 2 hr and ODs were read at 490 nm using the plate reader spetrophotometer. Background values were subtracted from the sample values obtained for each concentration and the results were expressed as a percent of viable cells. The IC50 values for each drug were calculated for each cell line.

DAUDI = assay: MTS cytotoxicity assay; format: cell-based; settings: Ep-CAM-negative DAUDI, 5 days
Description: as §1

HMEC = assay: MTS cytotoxicity assay; format: cell-based, human; settings: Ep-CAM-negative HMEC, 5 days
Description: The tumour cell lines used in this study were purchase from ATCC and were propagated following ATCC's recommendations except for the cell lines C-41, TOV-112D which were grown in RPMI 1640 or DMEM supplemented with 10% FCS, respectively. Tumor cells were harvested at 60-70% confluence with viability over 90%. The human normal mammary epithelial cells (HMEC) were purchased from CAMBREX and maintained in specified media according to the procedure provided by CAMBREX. The cells were harvested at 70% confluence with viability over 90%.
as §1

NIH:OVCAR-3 = assay: MTS cytotoxicity assay; format: cell-based; settings: Ep-CAM-positive NIH:OVCAR-3, MTS, 5 days
Description: The MTS assay used to measure potency was conducted using standard technique known in the art, and as more fully described below in Example 8. […] In the case of VB6-845-CL-de-bouganin, the potency was measured at 1 to 2 nM for CAL 27 and 0.6 to 0.7 nM versus NIH:OVCAR-3.
as §1

[1] = tested on: PBMCs (peripheral blood mononuclear cells) from naive donors; assay: Naive human T-cell proliferation assay (3H-thymidine incorporation, stimulation index); format: cell-based; settings: for presence of T cell epitope: compilation of 20 donors, 1 μM and 5 μM; for responsive donors: of 20 donor PBMC samples
Description: Accordingly, in the present studies, 89 synthetic 15-mer peptides (as listed in Table 1) were used in T-cell proliferation assays with PBMCs (peripheral blood mononuclear cells) from naive donors (i.e. no known sensitization to bouganin). 20 donor PBMC samples were selected to achieve an optimal coverage of MHC class II allotypes. PBMCs were stimulated with individual peptides in triplicate cultures for 7 days before proliferation was assessed by ^3H-thymidine incorporation. All peptides were diluted at two different concentrations: 1 μM and 5 μM. The stimulation indices (SI) were calculated as the amount of ^3H incorporated into the cells, divided by the amount of ^3H incorporated in mock-stimulated controls.
The peptides were used in T-cell proliferation assays with PBMCs (peripheral blood mononuclear cells) from naive donors (i.e. no known sensitization to bouganin). 20 donor PBMC were selected to get an optimal coverage of MHC class II allotypes. The allotypic coverage is in excess of 85%.
PBMCs were stimulated with individual peptides in triplicate cultures for 7 days before proliferation was assessed by ^3H-thymidine (^3H-Thy) incorporation. All peptides were tested at two different concentrations (1 μM and 5 μM). Stimulation indices (S.I.) were calculated as the amount of ^3H incorporated, divided by the amount of ^3H incorporated in mock-stimulated control cells.
Buffy coats from human blood stored for less than 12 hours were obtained from the National Blood Service (Addenbrooks Hospital, Cambridge, UK). Ficoll-paque was obtained from Amersham Pharmacia Biotech (Amersham, UK). Serum free AIM V media for the culture of primary human lymphocytes and containing L-glutamine, 50 μg/ml streptomycin, 10 μg/ml gentomycin and 0.1% human serum albumin was from Gibco-BRL (Paisley, UK). Synthetic peptides were obtained from Eurosequence (Groningen, The Netherlands) and Babraham Technix (Cambridge, UK).
Erythrocytes and leukocytes were separated from plasma and platelets by gentle centrifugation of buffy coats. The top phase (containing plasma and platelets) was removed and discarded. Erythrocytes and leukocytes were diluted 1:1 in phosphate buffered saline (PBS) before layering onto 15 ml ficoll-paque (Amersham Pharmacia, Amersham UK). Centrifugation was done according to the manufacturers recommended conditions and PBMCs were harvested from the serum+PBS/ficoll paque interface. PBMCs were mixed with PBS (1:1) and collected by centrifugation. The supernatant was removed and discarded and the PBMC pellet resuspended in 50ml PBS. Cells were again pelleted by centrifugation and the PBS supernatant discarded. Cells were resuspended using 50 ml AIM V media and at this point counted and viability assessed using trypan blue dye exclusion. Cells were again collected by centrifugation and the supernatant discarded. Cells were resuspended for cryogenic storage at a density of 3×10^7 per ml. The storage medium was 90% (v/v) heat inactivated AB human serum (Sigma, Poole, UK) and 10% (v/v) DMSO (Sigma, Poole, UK). Cells were transferred to a regulated freezing container (Sigma) and placed at −70° C. overnight. When required for use, cells were thawed rapidly in a water bath at 37° C. before transferring to 10ml pre-warmed AIM V medium.
PBMC were stimulated with protein and peptide antigens in a 96 well flat bottom plate at a density of 2×10^5 PBMC per well. PBMC were incubated for 7 days at 37° C. before pulsing with ^3H-Thy (Amersham-Pharmacia, Amersham, UK). […] C-32=sequence […] from Flu haemagglutinin residues 307-319 (SEQ ID NO:127). C-49=sequence […] from Chlamydia HSP 60 (SEQ ID NO:128).
Peptides were dissolved in DMSO to a final concentration of 10 mM, these stock solutions were then diluted 1/500 in AIM V media (final concentration 20 μM). Peptides were added to a flat bottom 96 well plate to give a final concentration of 1 and 5 μM in 100 μl. […]

Molecule	IC50 (A-375)	IC50 (DAUDI)	IC50 (HMEC)	IC50 (A-375; Homo sapiens, 120 h)	IC50 (DAUDI; Homo sapiens, 120 h)	IC50 (HMEC; Homo sapiens, 120 h)	IC50 (NIH:OVCAR-3; Homo sapiens, 120 h)	also measured
N.N.[Cl][Pt][Cl] [Cisplatin]	> 1000 nM	> 1000 nM	> 1000 nM					IC50 (NIH:OVCAR-3): > 1000 nM
CN(Cc1cnc2nc(N)nc(N)c2n1)c1ccc(C(=O)N[C@@H](CCC(=O)O)C(=O)O)cc1 [Methotrexate]				6 nM	3.6 nM	41 nM	> 1000 nM	
COc1cccc2c1C(=O)c1c(O)c3c(c(O)c1C2=O)C[C@@](O)(C(=O)CO)C[C@@H]3O[C@H]1C[C@H](N)[C@H](O)[C@H](C)O1 [Doxorubicin]				2.8 nM		16 nM	3 nM	
CCc1c2c(nc3ccc(OC(=O)N4CCC(N5CCCCC5)CC4)cc13)-c1cc3c(c(=O)n1C2)COC(=O)[C@]3(O)CC [Irinotecan]				900 nM	190 nM	1000 nM	180 nM	
CO[C@@]12[C@H](COC(N)=O)C3=C(C(=O)C(C)=C(N)C3=O)N1C[C@@H]1N[C@@H]12 [Mitomycin C]	14 nM	2.8 nM	50 nM					IC50 (NIH:OVCAR-3): 28 nM
CC[C@@]1(O)C(=O)OCc2c1cc1n(c2=O)Cc2cc3c(CN(C)C)c(O)ccc3nc2-1 [Topotecan]				1.5 nM	0.009 nM	4.1 nM	0.071 nM	
YKLEFSIEAIHGKTI [compound 45, bouganin 15-mer peptide, first amino acid 133]								T cell proliferation (in words) ([1]; compared with peptide 44): lower level T cell proliferation
O=C(O)CCCc1ccc(N(CCCl)CCCl)cc1 [Chlorambucil]				> 1000 nM	> 1000 nM	> 1000 nM	> 1000 nM	
Cc1c(N)nc([C@H](CC(N)=O)NC[C@H](N)C(N)=O)nc1C(=O)N[C@H](C(=O)N[C@H](C)[C@@H](O)[C@H](C)C(=O)N[C@H](C(=O)NCCc1nc(-c2nc(C(=O)NCCCNCCCCN)cs2)cs1)[C@@H](C)O)[C@@H](O[C@@H]1O[C@@H](CO)[C@@H](O)[C@H](O)[C@@H]1O[C@@H]1O[C@H](CO)[C@@H](O)[C@H](OC(N)=O)[C@@H]1O)c1cnc[nH]1 [Bleomycin A5]	290 nM	130 nM	1000 nM					IC50 (NIH:OVCAR-3): 150 nM
EIAKFFLIVIQMVSE [peptide 51, bouganin 15-mer peptide, first amino acid 151]								S.I. (stimulation index) ([1]; donor 14): > 1.9
AKVDRKDLELGVYKL [peptide 41, bouganin 15-mer peptide, first amino acid 121]								presence of T cell epitope [1]: T cell epitopes; S.I. (stimulation index) ([1]; donor 4, peptide at 5 μM): 3.6; S.I. (stimulation index) ([1]; donor 5, peptide at 5 μM): 4.9; S.I. (stimulation index) ([1]; donor 10, peptide at 5 μM): 2.1; S.I. (stimulation index) ([1]; donor 11, peptide at 5 μM): 2.0; responsive donors [1]: four
O=c1[nH]cc(F)c(=O)[nH]1 [Fluorouracil]				> 1000 nM	> 1000 nM	> 1000 nM	> 1000 nM	
O=P1(N(CCCl)CCCl)NCCCO1 (stereo not drawn) [Cyclophosphamide]				> 1000 nM	> 1000 nM	> 1000 nM	> 1000 nM	
NGQEIAKFFLIVIQM [peptide 50, bouganin 15-mer peptide, first amino acid 148]								presence of T cell epitope [1]: T cell epitopes; S.I. (stimulation index) ([1]; donor 4): 2.9; S.I. (stimulation index) ([1]; donor 14): 2.0; responsive donors [1]: 2
COc1cc([C@@H]2c3cc4c(cc3[C@@H](O[C@@H]3O[C@@H]5CO[C@@H](C)O[C@H]5[C@H](O)[C@H]3O)[C@H]3COC(=O)[C@H]23)OCO4)cc(OC)c1O [Etoposide]				280 nM	1.7 nM	600 nM	210 nM	
N.N.O=C([O-])C1(C(=O)[O-])CCC1.[Pt+2] [Carboplatin]	> 1000 nM	> 1000 nM	> 1000 nM					IC50 (NIH:OVCAR-3): > 1000 nM
Bleomycin Sulfate	170 nM	22 nM	600 nM					IC50 (NIH:OVCAR-3): 30 nM
B1	> 1000 nM	> 1000 nM	220 nM					
